Laboratory results as given in patent US8586591B2, “Aminopyrazine derivative and medicine” (Nippon Shinyaku Co., Ltd., priority 2009, dated 2013).
Where a name gives a salt, the structure may show the parent alone.

What was measured:
[1] = biological target: T1, JAK2 tyrosine kinase (Homo sapiens, UniProt O60674); test: Test 1: inhibitory activity to JAK2 tyrosine kinase (ELISA); assay type: biochemical; details: 25 μM ATP in substrate solution, 30° C. for 1 hour, n=2
T1 construct: purchased Carnabioscience Co
Summary of the method: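 This is an ELISA read at A450 (HRP anti-phosphotyrosine antibody, TMB) of biotin-peptide phosphorylation captured on streptavidin. Enzyme solution was 0.75 nM JAK2, and the substrate solution was 625 nM peptide with 25 μM ATP in Tris pH 7.5 buffer. The reaction ran 1 h at 30 °C with compounds in duplicate, and IC50 was fitted non-linearly.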

[2] = biological target: T2, JAK3 tyrosine kinase (Homo sapiens, UniProt P52333); test: Test 1: inhibitory activity to JAK3 tyrosine kinase (ELISA); assay type: biochemical; details: 25 μM ATP in substrate solution, 30° C. for 1 hour, n=2
T2 construct: purchased Carnabioscience Co
T2 sequence (P52333 1-1124): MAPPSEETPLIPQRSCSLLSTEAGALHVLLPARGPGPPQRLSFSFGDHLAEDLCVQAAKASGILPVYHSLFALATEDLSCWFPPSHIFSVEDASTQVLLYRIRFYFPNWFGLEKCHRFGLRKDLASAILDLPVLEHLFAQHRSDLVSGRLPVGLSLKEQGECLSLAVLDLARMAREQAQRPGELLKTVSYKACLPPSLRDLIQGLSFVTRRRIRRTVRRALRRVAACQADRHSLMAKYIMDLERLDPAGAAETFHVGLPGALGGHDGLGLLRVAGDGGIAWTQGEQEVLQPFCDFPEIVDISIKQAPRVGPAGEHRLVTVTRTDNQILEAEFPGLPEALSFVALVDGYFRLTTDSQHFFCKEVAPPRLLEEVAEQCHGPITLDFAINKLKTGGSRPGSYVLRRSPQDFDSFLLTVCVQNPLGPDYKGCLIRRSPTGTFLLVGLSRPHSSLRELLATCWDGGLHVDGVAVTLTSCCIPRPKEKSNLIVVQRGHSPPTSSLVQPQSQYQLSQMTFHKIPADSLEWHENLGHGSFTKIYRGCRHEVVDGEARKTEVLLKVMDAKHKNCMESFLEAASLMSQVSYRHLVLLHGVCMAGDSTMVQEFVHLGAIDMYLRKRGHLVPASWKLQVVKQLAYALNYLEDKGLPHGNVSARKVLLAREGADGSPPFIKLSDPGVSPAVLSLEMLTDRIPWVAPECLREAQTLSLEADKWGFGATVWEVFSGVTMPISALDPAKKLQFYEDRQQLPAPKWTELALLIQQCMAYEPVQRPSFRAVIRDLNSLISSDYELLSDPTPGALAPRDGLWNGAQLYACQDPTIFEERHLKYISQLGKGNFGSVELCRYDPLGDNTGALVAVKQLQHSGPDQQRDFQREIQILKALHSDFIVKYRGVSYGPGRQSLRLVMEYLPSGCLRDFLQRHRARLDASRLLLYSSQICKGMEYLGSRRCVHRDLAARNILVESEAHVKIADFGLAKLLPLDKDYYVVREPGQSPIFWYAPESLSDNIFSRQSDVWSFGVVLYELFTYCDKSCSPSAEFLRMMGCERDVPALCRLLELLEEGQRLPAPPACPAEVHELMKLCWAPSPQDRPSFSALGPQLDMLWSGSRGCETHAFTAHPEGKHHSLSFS
Summary of the method: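 ELISA of JAK3 kinase activity with absorbance read at 450 nm. Compounds were tested from DMSO dilution series at 100-fold the measurement concentrations (1000–0.01 μM), diluted up to 20 times in assay buffer, against a DMSO negative control. IC50 was estimated by non-linear regression of absorbance.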

T1 sequence (O60674 whole entry): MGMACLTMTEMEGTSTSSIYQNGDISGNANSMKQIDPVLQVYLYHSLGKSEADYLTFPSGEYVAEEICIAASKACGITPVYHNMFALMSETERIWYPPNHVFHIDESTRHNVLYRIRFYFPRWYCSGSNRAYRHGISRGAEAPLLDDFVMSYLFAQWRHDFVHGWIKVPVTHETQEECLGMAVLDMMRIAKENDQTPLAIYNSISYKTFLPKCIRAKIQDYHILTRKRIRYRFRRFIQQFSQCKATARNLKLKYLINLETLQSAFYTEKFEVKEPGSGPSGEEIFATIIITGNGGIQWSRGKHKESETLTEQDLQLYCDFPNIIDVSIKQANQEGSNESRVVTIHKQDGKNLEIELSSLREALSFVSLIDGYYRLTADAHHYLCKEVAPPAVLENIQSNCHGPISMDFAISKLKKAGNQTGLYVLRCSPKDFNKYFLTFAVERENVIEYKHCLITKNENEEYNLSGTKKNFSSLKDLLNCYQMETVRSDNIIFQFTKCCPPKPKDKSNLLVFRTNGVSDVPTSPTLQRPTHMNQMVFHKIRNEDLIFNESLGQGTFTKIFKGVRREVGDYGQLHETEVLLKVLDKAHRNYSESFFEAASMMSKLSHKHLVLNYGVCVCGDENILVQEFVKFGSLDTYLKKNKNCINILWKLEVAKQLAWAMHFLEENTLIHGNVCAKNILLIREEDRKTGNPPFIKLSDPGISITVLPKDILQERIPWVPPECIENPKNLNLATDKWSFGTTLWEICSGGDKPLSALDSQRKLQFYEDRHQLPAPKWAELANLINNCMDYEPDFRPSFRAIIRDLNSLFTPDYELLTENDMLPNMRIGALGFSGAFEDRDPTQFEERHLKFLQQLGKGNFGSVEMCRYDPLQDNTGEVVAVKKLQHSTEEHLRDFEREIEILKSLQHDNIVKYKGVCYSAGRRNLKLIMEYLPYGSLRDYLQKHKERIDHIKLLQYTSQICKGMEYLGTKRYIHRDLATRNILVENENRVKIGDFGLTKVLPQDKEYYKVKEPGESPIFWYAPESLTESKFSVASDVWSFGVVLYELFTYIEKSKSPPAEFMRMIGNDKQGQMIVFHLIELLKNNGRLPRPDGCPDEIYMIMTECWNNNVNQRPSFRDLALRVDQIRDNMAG

Compound | IC50 [1] [nM] | IC50 [2] [nM]
C[C@H](Nc1nc(Nc2cnccn2)cc(N2CC(C(=O)NCCO)C2)n1)c1ccc(F)cc1 [Example 199, (S)-1-{2-[1-(4-Fluorophenyl)ethylamino]-6-(pyrazin-2-ylamino)pyrimidin-4-yl}-N-(2-hydroxyethyl)azetidine-3-carboxamide] | 1.6 | 64
C[C@H](Nc1cc(N2CC(O)C2)cc(Nc2cnccn2)n1)c1ccc(F)cc1 [Example 202, (S)-1-{2-[1-(4-Fluorophenyl)ethylamino]-6-(pyrazin-2-ylamino)pyridin-4-yl}azetidin-3-ol hydrochloride] | 4.7 | 470
C[C@H](Nc1cc(-c2ccc(F)cc2)cc(Nc2cnccn2)n1)c1ccc(F)cc1 [Example 120, (S)-4-(4-Fluorophenyl)-N^2-[1-(4-fluorophenyl)ethyl]-N^6-(pyrazin-2-yl)pyridine-2,6-diamine hydrochloride] | 23 | 1700
CCC(=O)Nc1cc(Nc2cnccn2)nc(N[C@@H](C)c2ccc(F)cc2)c1 [Example 216, (S)—N-{2-[1-(4-Fluorophenyl)ethylamino]-6-(pyrazin-2-ylamino)pyridin-4-yl}propionamide] | 1.4 | 49
C[C@H](Nc1cc(-c2ccc(S(C)(=O)=O)cc2)cc(Nc2cnccn2)n1)c1ccc(F)cc1 [Example 36, (S)—N^2-[1-(4-Fluorophenyl)ethyl]-4-[4-(methylsulfonyl)phenyl]-N^6-(pyrazin-2-yl)pyridine-2,6-diamine hydrochloride] | 2.8 | 200
C[C@H](Nc1nc(Nc2cnccn2)cc(N2CC(C#N)C2)n1)c1ccc(F)cc1 [Example 178, (S)-1-{2-[1-(4-Fluorophenyl)ethylamino]-6-(pyrazin-2-ylamino)pyrimidin-4-yl}azetidine-3-carbonitrile] | 1 | 82
C[C@H](Nc1cc(N2CC(O)(C(F)(F)F)C2)cc(Nc2cnccn2)n1)c1ccc(F)cc1 [Example 206, (S)-1-{2-[1-(4-Fluorophenyl)ethylamino]-6-(pyrazin-2-ylamino)pyridin-4-yl}-3-(trifluoromethyl)azetidin-3-ol hydrochloride] | 10 | 360
C[C@H](Nc1nc(Nc2cnccn2)cc(-c2ccc(C#N)nc2)n1)c1ccc(F)cc1 [Example 55, (S)-5-{2-[1-(4-Fluorophenyl)ethylamino]-6-(pyrazin-2-ylamino)pyrimidin-4-yl}picolinonitrile] | 2 | 190
C[C@H](Nc1nc(Nc2cnccn2)cc(N2CCC[C@H]2CO)n1)c1ccc(F)cc1 [Example 69, ((S)-1-{2-[(S)-1-(4-Fluorophenyl)ethylamino]-6-(pyrazin-2-ylamino)pyrimidin-4-yl}pyrrolidin-2-yl)methanol] | 2.6 | 83
C[C@H](Nc1cc(NS(C)(=O)=O)cc(Nc2cnccn2)n1)c1ccc(F)cc1 [Example 209, (S)—N-{2-[1-(4-Fluorophenyl)ethylamino]-6-(pyrazin-2-ylamino)pyridin-4-yl}methanesulfonamide hydrochloride] | 7.1 | 440
CCOCCNC(=O)c1cc(Nc2cnccn2)nc(N[C@@H](C)c2ccc(F)cc2)c1 [Example 173, (S)—N-(2-Ethoxyethyl)-2-[1-(4-fluorophenyl)ethylamino]-6-(pyrazin-2-ylamino)isonicotinamide] | 1.5 | 200
Cc1cn(-c2cc(Nc3cnccn3)nc(N[C@@H](C)c3ccc(F)cc3)n2)cn1 [Example 118, (S)—N^2-[1-(4-Fluorophenyl)ethyl]-6-(4-methyl-1H-imidazol-1-yl)-N^4-(pyrazin-2-yl)pyrimidine-2,4-diamine hydrochloride] | 1.6 | 290
C[C@H](Nc1nc(Nc2cnccn2)cc(N2CC(F)(F)C2)n1)c1ccc(F)cc1 [Example 3, (S)-6-(3,3-Difluoroazetidin-1-yl)-N^2-[1-(4-fluorophenyl)ethyl]-N^4-(pyrazin-2-yl)pyrimidine-2,4-diamine hydrochloride] | 1.2 | 130
C[C@H](Nc1nc(Nc2cnccn2)cc(-c2cn[nH]c2)n1)c1ccc(F)cc1 [Example 11, (S)—N^2-[1-(4-Fluorophenyl)ethyl]-N^4-(pyrazin-2-yl)-6-(1H-pyrazol-4-yl)pyrimidine-2,4-diamine hydrochloride] | 0.82 | 36
CCOC(=O)C1CCN(c2cc(Nc3cnccn3)nc(N[C@@H](C)c3ccc(F)cc3)n2)CC1 [Example 83, Ethyl (S)-1-{2-[1-(4-fluorophenyl)ethylamino]-6-(pyrazin-2-ylamino)pyrimidin-4-yl}piperidin-4-carboxylate] | 3.7 | 58
C[C@H](Nc1nc(Nc2cnccn2)cc(-c2cnco2)n1)c1ccc(F)cc1 [Example 22, (S)—N^2-[1-(4-Fluorophenyl)ethyl]-6-(oxazol-5-yl)-N^4-(pyrazin-2-yl)pyrimidine-2,4-diamine hydrochloride] | 1.6 | 88
CC(=O)NC1CN(c2cc(Nc3cnccn3)nc(N[C@@H](C)c3ccc(F)cc3)n2)C1 [Example 42, (S)—N-(1-{2-[1-(4-Fluorophenyl)ethylamino]-6-(pyrazin-2-ylamino)pyrimidin-4-yl}azetidin-3-yl)acetamide] | 1 | 66
C[C@H](Nc1cc(N2CC(N3CCOCC3)C2)cc(Nc2cnccn2)n1)c1ccc(F)cc1 [Example 233, (S)—N^2-[1-(4-Fluorophenyl)ethyl]-4-[3-morpholinoazetidin-1-yl]-N^6-(pyrazin-2-yl)pyridine-2,6-diamine] | 5.8 | 140
C[C@H](Nc1nc(Nc2cnccn2)cc(N2CC(C(=O)N3CCCC3)C2)n1)c1ccc(F)cc1 [Example 193, (S)-(1-{2-[1-(4-Fluorophenyl)ethylamino]-6-(pyrazin-2-ylamino)pyrimidin-4-yl}azetidin-3-yl)(pyrrolidin-1-yl)methanone] | 0.8 | 35
C[C@H](Nc1nc(Nc2cnccn2)cc(N[C@H](CO)c2ccccc2)n1)c1ccc(F)cc1 [Example 86, (S)-2-{2-[(S)-1-(4-Fluorophenyl)ethylamino]-6-(pyrazin-2-ylamino)pyrimidin-4-ylamino}-2-phenylethanol] | 2.4 | 87
C[C@H](Nc1cc(N2CCSCC2)cc(Nc2cnccn2)n1)c1ccc(F)cc1 [Example 40, (S)—N^2-[1-(4-Fluorophenyl)ethyl]-N^6-(pyrazin-2-yl)-4-thiomorpholinopyridine-2,6-diamine] | 3.4 | 310
C[C@H](Nc1nc(Nc2cnccn2)cc(N2CCC(C(=O)O)CC2)n1)c1ccc(F)cc1 [Example 85, (S)-1-{2-[1-(4-Fluorophenyl)ethylamino]-6-(pyrazin-2-ylamino)pyrimidin-4-yl}piperidine-4-carboxylic acid] | 0.51 | 20
C[C@H](Nc1nc(Nc2cnccn2)cc(N2CC(O)(C(F)(F)F)C2)n1)c1ccc(F)cc1 [Example 192, (S)-1-{2-[1-(4-Fluorophenyl)ethylamino]-6-(pyrazin-2-ylamino)pyrimidin-4-yl}-3-(trifluoromethyl)azetidin-3-ol hydrochloride] | 1.9 | 120
C[C@H](Nc1nc(NCc2ccco2)cc(Nc2cnccn2)n1)c1ccc(F)cc1 [Example 103, (S)—N^2-[1-(4-Fluorophenyl)ethyl]-N^4-(furan-2-ylmethyl)-N^6-(pyrazin-2-yl)pyrimidine-2,4,6-triamine hydrochloride] | 4.1 | 310
C[C@H](Nc1nc(Nc2cnccn2)cc(N2CCCNC2=O)n1)c1ccc(F)cc1 [Example 18, (S)-1-{2-[1-(4-Fluorophenyl)ethylamino]-6-(pyrazin-2-ylamino)pyrimidin-4-yl}tetrahydropyrimidin-2(1H)-one] | 3 | 130
